The text below walks through data of US9034865B2, “Pyrido [4,3-B] indole and pyrido [3,4-B] indole derivatives and methods of use” (Medivation Technologies, Inc., priority 2010, dated 2015).

The target of test [1] is T1, human recombinant histamine H1 receptor (Homo sapiens, UniProt P35367).
T1 construct: expressed in transfected cells; host or cells: CHO-K1
Briefly: Histamine H1 radioligand binding ([3H]Pyrilamine). The conditions noted are these: compound at 0.1 μM; 1.2 nM [3H]Pyrilamine; read-out: Binding data (Percentage inhibition) Histamine H1 (0.1 μM). Here is the method:
To evaluate in radioligand binding assays the activity of compounds of the invention, human recombinant histamine H1 receptor expressed in Chinese hamster ovary (CHO) K1 cells (De Backer, M. et al, Biochem. Biophys. Res. Comm. 197(3):1601, 1993) in a modified Tris-HCl buffer (50 mM Tris-HCl, pH 7.4, 2 mM MgCl2, 100 mM NaCl, 250 mM Sucrose) was used. Compounds of the invention were incubated with 1.2 nM [^3H]Pyrilamine for 180 min at 25° C. Non-specific binding was estimated in the presence of 1 μM Pyrilamine. Receptor proteins were filtered and washed, the filters were then counted to determine [^3H]Pyrilamine specifically bound. Compounds were screened at 1 μM or lower, using 1% DMSO as vehicle. Biochemical assay results are presented as the percent inhibition of specific binding in Table 2.

Test [2] deals with T2, rat adrenergic α1A receptor (Rattus norvegicus, UniProt P43140).
T2 construct: rat adrenergic α1A receptor obtained from Wistar Rat submaxillary glands; from tissue; host or cells: Wistar rat submaxillary glands
T2 sequence (P43140 1-466): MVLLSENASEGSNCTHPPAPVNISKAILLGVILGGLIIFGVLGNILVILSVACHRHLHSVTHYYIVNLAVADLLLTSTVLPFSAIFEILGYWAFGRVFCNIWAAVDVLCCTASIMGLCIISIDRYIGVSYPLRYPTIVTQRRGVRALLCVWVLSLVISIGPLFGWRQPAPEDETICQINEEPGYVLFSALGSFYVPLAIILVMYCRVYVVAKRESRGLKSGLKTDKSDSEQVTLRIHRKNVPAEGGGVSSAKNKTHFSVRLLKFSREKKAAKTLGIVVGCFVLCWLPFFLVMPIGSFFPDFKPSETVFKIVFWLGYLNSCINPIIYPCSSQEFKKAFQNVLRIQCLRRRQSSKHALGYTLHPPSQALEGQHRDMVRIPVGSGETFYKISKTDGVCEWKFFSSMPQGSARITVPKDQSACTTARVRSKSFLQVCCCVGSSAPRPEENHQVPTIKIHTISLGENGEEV
As to the kind of experiment: Adrenergic α1A radioligand binding ([3H]Prazosin). The conditions noted are these: compound at 0.1 μM; read-out: Percentage inhibition of ligand binding, Adrenergic (0.1 μM) α1A. The procedure: To evaluate in radioligand binding assays the activity of compounds of the invention, rat adrenergic α1A receptor obtained from Wistar Rat submaxillary glands (Michel, A. et al, Br. J. Pharmacol. 98:883, 1989) in a modified Tris-HCl buffer (50 mM Tris-HCl buffer, pH 7.4, 0.5 mM EDTA) was used. Compounds of the invention were incubated with 0.25 nM [^3H]Prazosin for 60 min at 25° C. Non-specific binding was estimated in the presence of 10 μM phentolamine. Receptor proteins were filtered and washed, the filters were then counted to determine [^3H]Prazosin specifically bound. Compounds of the invention were screened at 1 μM or lower, using 1% DMSO as vehicle. Biochemical assay results are presented as the percent inhibition of specific binding in Table 3.

For test [3], the target named is T3, human recombinant serotonin (5-Hydroxytryptamine) 5-HT2A receptor (Homo sapiens, UniProt P28223).
T3 construct: expressed in transfected cells; host or cells: CHO-K1
Briefly: Serotonin 5-HT2A radioligand binding ([3H]Ketanserin). As to conditions: compound at 0.1 μM; read-out: Percentage inhibition of ligand binding, Serotonin (0.1 μM) 5-HT2A. The procedure:
To evaluate in radioligand binding assays the activity of compounds of the invention, human recombinant serotonin (5-Hydroxytryptamine) 5-HT2A receptor expressed in Chinese hamster ovary (CHO) K1 cells (Bonhaus, D. et al, Br. J. Pharmacol. 115:622, 1995; Saucier, C. et al, J. Neurochem. 68:1998, 1997) in a 50 mM Tris-HCl buffer, pH 7.4, was used. Compounds of the invention were incubated with 0.5 nM [^3H]Ketanserin for 60 min at 25° C. Non-specific binding was estimated in the presence of 1 μM Mianserin. Receptor proteins were filtered and washed, the filters were then counted to determine [^3H]Ketanserin specifically bound. Compounds were screened at 1 μM or lower, using 1% DMSO as vehicle. Biochemical assay results are presented as the percent inhibition of specific binding in Table 4.

Test [4] addresses T4, human recombinant serotonin (5-Hydroxytryptamine) 5-HT6 receptor (Homo sapiens, UniProt P50406).
T4 construct: expressed in transfected cells; host or cells: HeLa
Briefly: Serotonin 5-HT6 radioligand binding ([3H]LSD). The conditions noted are these: compound at 0.1 μM; read-out: Percentage inhibition of ligand binding, Serotonin (0.1 μM) 5-HT6. Here is the method: To evaluate in radioligand binding assays the activity of compounds of the invention, human recombinant serotonin (5-Hydroxytryptamine) 5-HT6 receptor expressed in human HeLa cells (Monsma, F. Jr. et al, Mol. Pharmacol. 43:320, 1993) in a modified Tris-HCl buffer (50 mM Tris-HCl, pH 7.4, 150 mM NaCl, 2 mM Ascorbic Acid, 0.001% BSA) was used. Compounds of the invention were incubated with 1.5 nM [3H]Lysergic acid diethylamide (LSD) for 120 min at 37° C. Non-specific binding was estimated in the presence of 5 μM Serotonin (5-HT). Receptor proteins were filtered and washed, the filters were then counted to determine [3H]LSD specifically bound. Compounds were screened at 1 μM or lower, using 1% DMSO as vehicle. Biochemical assay results are presented as the percent inhibition of specific binding in Table 4.

T3 sequence (P28223 whole entry): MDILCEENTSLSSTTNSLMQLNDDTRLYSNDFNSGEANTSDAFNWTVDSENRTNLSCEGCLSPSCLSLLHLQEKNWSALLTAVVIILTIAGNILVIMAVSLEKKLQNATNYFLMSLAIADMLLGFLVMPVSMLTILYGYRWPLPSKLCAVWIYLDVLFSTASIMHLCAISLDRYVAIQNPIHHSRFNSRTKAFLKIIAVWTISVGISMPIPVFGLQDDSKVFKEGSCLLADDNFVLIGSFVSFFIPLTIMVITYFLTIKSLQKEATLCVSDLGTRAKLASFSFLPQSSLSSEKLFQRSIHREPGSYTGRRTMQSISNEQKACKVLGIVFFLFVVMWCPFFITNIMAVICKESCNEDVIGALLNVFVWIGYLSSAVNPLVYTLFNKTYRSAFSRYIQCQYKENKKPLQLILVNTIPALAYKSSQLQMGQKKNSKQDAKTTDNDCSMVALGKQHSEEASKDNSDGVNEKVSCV
T4 sequence (P50406 whole entry): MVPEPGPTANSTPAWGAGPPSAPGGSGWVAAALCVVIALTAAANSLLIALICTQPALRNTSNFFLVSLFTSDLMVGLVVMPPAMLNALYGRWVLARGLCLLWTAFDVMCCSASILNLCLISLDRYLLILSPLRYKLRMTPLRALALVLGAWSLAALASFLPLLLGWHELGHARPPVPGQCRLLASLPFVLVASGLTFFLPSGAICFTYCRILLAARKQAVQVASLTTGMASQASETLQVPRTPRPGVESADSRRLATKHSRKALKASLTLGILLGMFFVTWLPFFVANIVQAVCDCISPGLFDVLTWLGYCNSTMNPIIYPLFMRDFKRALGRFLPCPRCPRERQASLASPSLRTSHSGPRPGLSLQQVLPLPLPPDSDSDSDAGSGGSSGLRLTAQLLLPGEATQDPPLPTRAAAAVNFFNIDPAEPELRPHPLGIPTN
T1 sequence (P35367 whole entry): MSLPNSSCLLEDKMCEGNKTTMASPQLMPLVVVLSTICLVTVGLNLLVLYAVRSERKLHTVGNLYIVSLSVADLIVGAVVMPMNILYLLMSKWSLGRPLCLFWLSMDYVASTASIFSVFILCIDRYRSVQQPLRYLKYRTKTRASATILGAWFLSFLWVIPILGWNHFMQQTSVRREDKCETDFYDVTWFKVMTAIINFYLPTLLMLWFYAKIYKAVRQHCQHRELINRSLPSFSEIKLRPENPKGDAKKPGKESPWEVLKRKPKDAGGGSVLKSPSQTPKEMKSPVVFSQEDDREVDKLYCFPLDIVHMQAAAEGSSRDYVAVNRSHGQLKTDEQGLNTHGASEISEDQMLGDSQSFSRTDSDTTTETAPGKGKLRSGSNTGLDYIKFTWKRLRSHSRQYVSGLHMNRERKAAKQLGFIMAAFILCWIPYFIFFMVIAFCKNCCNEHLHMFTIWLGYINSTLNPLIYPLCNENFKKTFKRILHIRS

As to `Cc1cc(-c2ccc(F)cc2)c2c(c1)c1c(n2C)CCN(C)C1` [Compound 7], the inhibition at 0.1 µM in test [1] turned out to be 6%; in test [2] it was 1%; in test [3] it was 6%; in test [4], 10%.

`Cc1cc(C#Cc2cccs2)c2[nH]c3c(c2c1)CN(C)CC3` [Compound 8]: the inhibition at 0.1 µM in test [1] was -3%; in test [2], -5%; in test [3] it was 27%; in test [4], 15%.

Turning to `Cc1cc(-c2ccncc2)c2c(c1)c1c(n2C)CCN(C)C1` [Compound 9], the inhibition at 0.1 µM in test [1] was 0%; in test [2], 4%; in test [3], 5%; in test [4], -2%.

As for `C#Cc1cc(C)cc2c3c(n(C)c12)CCN(C)C3` [Compound 10, 6-Ethynyl-2,3,4,5-tetrahydro-2,5,8-trimethyl-1H-pyrido[4,3-b]indole], the inhibition at 0.1 µM in test [1] was 5%; in test [2], 6%; in test [3], 37%; in test [4], 18%.

Consider `C/C(=C\c1cc(C)cc2c3c(n(C)c12)CCN(C)C3)c1ccncc1` [Compound 11], for which the inhibition at 0.1 µM in test [1] was -3%; in test [2], -14%; in test [3], 13%; in test [4], -6%.

As for `Cc1cc(C#Cc2ccc(C)nc2)c2c(c1)c1c(n2C)CCN(C)C1` [Compound 12, 2,3,4,5-tetrahydro-2,5,8-trimethyl-6-(2-(6-methylpyridin-3-yl)ethynyl)-1H-pyrido[4,3-b]indole], the inhibition at 0.1 µM in test [1] was -14%; in test [2], -12%; in test [3], 23%; in test [4], -3%.

Regarding `Cc1cc(CCc2ccc(C)nc2)c2c(c1)c1c(n2C)CCN(C)C1` [Compound 13], the inhibition at 0.1 µM was 28% in test [1], 2% in test [2], 13% in test [3] and 2% in test [4].

Turning to `Cc1cc(/C=C/c2ccc(C)nc2)c2c(c1)c1c(n2C)CCN(C)C1` [Compound 14], the inhibition at 0.1 µM is 25% in test [1], -16% in test [2], -7% in test [3] and 10% in test [4].

As for `C/C(=C\c1cc(C)cc2c3c(n(C)c12)CCN(C)C3)c1ccc(C)nc1` [Compound 15], the inhibition at 0.1 µM in test [1] came out at 2%; in test [2] it was 3%; in test [3], 1%; in test [4] it was 11%.

Take `Cc1cc(C#Cc2nccs2)c2[nH]c3c(c2c1)CN(C)CC3` [Compound 16]: the inhibition at 0.1 µM was 9% in test [1], -1% in test [2], 21% in test [3] and 14% in test [4].

In the case of `Cc1cc(C#Cc2ccncc2)c2c(c1)c1c(n2C)CCN(C)C1` [Compound 17], the inhibition at 0.1 µM in test [1] is 39%; in test [2], -2%; in test [3], 24%; in test [4] it was 5%.

For `Cc1ccc(C#Cc2cc(Cl)cc3c4c(n(C)c23)CCN(C)C4)cn1` [Compound 18], the inhibition at 0.1 µM in test [1] came out at 12%; in test [2], 14%; in test [3], 80%; in test [4], 6%.
